From US7285528B2, “Agonists and antagonists of gonadotropin-releasing hormone-2, and use thereof” (priority 2002, dated 2007)
Where a SMILES comes first, the peptide text is derived from it. [ ]: non-standard residue; d: D form. dPhe(4-Cl) = N[C@H](Cc1ccc(Cl)cc1)C(=O)O; d2Nal = N[C@H](Cc1ccc2ccccc2c1)C(=O)O; dCit = NC(=O)NCCC[C@@H](N)C(=O)O; d3Pal = N[C@H](Cc1cccnc1)C(=O)O

Key:
bfGnRHR-3 [1] = test: Inhibition of GnRH-2-induced IP production, GH3 cells expressing bfGnRHR-3; type: cell-based, bullfrog
Description: (§1) GH3 cell lines were obtained from the Cell Line Bank at the Cancer Research Center, Seoul National University College of Medicine, located in Seoul, Republic of Korea. The GH3 cell lines were infected with retroviruses comprising genes encoding bfGnRHR-1, bfGnRHR-2, and bfGnRHR-3 which are bullfrog GnRH receptors, and rat GnRHR, and cell lines expressing each of these receptors were obtained. The GH3 cells expressing bfGnRHR-1, bfGnRHR-2, bfGnRHR-3, and rat GnRHR were cultured on 12-well plates. After 24 hours, the cells were cultured again for 24 hours in a media containing no inositol, to which H^3-myoinositol was added. The resultant cells were washed with buffer A (140 mM NaCl, 20 mM HEPES, 4 mM KCl, 8 mM D-Glucose, 1 mM MgCl2, 1 mM CaCl2, 1 mg/ml BSA) and then cultured in buffer A containing 10 mM LiCl at 37°C. for 30 minutes. Thereafter, they were treated with GnRH having a suitable concentration, cultured at 37° C. for another 30 minutes, and then the media was eliminated. The cells were treated with 10 mM of ice-cold formic acid to terminate the reaction, and the cell extracts were mixed with Dowex anionic exchange resins. These resins were washed with distilled water, IP was extracted with 1 M ammonium formate/0.1 M formic acid, and cpm (count per minute) was determined.

bfGnRHR-3 [2] = test: Ligand-receptor binding assay, I125-GnRH-2 competition, membranes of GH3 cells expressing bfGnRHR-3; set-up: species or system bullfrog; settings: log of IC50 (negative values); competition with I125-GnRH-2, 4° C., 16 hours
Description: (§2) To determine the binding affinity between GnRH and GnRH receptors, GnRH-2 was radiolabeled with I^125. The GH3 cells expressing bfGnRHR-1, bfGnRHR-2, bfGnRHR-3, and rat GnRHR constructed in Example 2-3 above were cultured on 100-mm dishes. After 48 hours, the cells were homogenized to obtain cellular membranes, which were then dissolved in binding buffer (40 mM Tris, pH 7.4, 2 mM MgCl2). 20 μg of membrane proteins were reacted with I^125-GnRH-2 at 4° C. for 16 hours. […] After the reaction was completed, 1^125-GnRH-2 bound to the receptors was filtered using a Brandel harvester, and cpm was measured using a γ-counter.
The GH3 cells expressing bfGnRHR-3 obtained from Example 6-1 above were treated with l^125GnRH-2 and GnRH-2 agonists and antagonists at various concentrations to determine the binding affinity of GnRH-2 agonists and antagonists toward the receptors.

Primate GnRH-2 receptor = test: Inhibition of GnRH-2-induced c-fos-luc luciferase activity, cells expressing Primate GnRH-2 receptor; type: cell-based, Primates
Description: Complimentary DNA (cDNA) for a Primate GnRH-2 receptor was obtained from a CV-1 cell genome. […] Plasmids having Primate GnRH-2 receptors where transfected into CV-1 cells. To assay the activity of the receptor, c-fos-luc where a luciferase gene is fused with a c-fos promoter was co-transfected as a probe gene. After 48 hours from transfection, the cells were treated with GnRH-2 agonists and then the activity of luciferase was assayed (Seong et al., Endocrinology vol 144 2003, 454-466). In the same manner as in 2-3 above, Primate GnRH-2 receptors were co-transfected along with c-fos-luc reporter genes, and after 48 hours, GnRH-2 and GnRH-2 antagonists were treated thereinto at the same time and then the effect of GnRH-2 antagonists was observed. […] Log IC50 value by antagonists is an average value of experiments that were conducted independently three times. ND stands for “not detected” which means that there are no inhibitory functions.

bfGnRHR-2 = test: Inhibition of GnRH-2-induced IP production, GH3 cells expressing bfGnRHR-2; type: cell-based, bullfrog
Description: as §1

rat GnRHR [3] = molecular target: T1, rat GnRHR (Rattus norvegicus, UniProt P30969); test: Ligand-receptor binding assay, I125-GnRH-2 competition, membranes of GH3 cells expressing rat GnRHR; settings: log of IC50 (negative values); competition with I125-GnRH-2, 4° C., 16 hours; read-out: Binding affinity (log IC50 value) (converted)
T1 construct: expressed in transfected cells; host or cells: GH3 cells, retrovirus-mediated infection
T1 sequence (P30969 1-327): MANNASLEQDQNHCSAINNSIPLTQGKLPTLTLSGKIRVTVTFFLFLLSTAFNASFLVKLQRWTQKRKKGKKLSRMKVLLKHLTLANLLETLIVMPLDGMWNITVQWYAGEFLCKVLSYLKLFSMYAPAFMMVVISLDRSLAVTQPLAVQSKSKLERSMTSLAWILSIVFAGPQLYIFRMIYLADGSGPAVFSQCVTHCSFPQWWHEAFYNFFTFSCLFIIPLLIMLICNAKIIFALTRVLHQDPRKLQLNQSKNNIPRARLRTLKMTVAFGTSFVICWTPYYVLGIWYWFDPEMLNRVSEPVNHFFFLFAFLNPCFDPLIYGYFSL
Description: as §2, with “The GH3 cells expressing bfGnRHR-1, bfGnRHR-2, bfGnRHR-3, and rat GnRHR constructed in Example 2-3 above were cultured on 100-mm dishes.” left out

rat GnRHR [4] = molecular target: T1, rat GnRHR; test: Inhibition of GnRH-induced IP production, GH3 cells expressing rat GnRHR; type: cell-based; settings: rat GnRH receptors
Description: as §1

[5] = log of IC50 (negative values), half-maximal inhibition of IP production induced by GnRH-2 (1 nM, 10 nM elsewhere in the source)
[6] = reduction of IP production induced by 1 nM GnRH-2

Log IC50 (bfGnRHR-3 [1]; [5]): −8.49 ± 0.11 | Binding affinity (log IC50 value) (bfGnRHR-3 [2]): −11.73 ± 0.19 | Log IC50 (Primate GnRH-2 receptor; log of IC50 (negative values), reporter c-fos-luc, GnRH-2-induced luciferase, average of three experiments, ND = not detected, no inhibitory functions): −5.74 ± 0.10 | Log IC50 (bfGnRHR-2; [5]): −8.10 ± 0.08 | IC50 (rat GnRHR [3]): 1.78 pM | fold lower effect than Cetrorelix (rat GnRHR [4]): ~60 fold
SMILES: CC(=O)N[C@H](Cc1ccc2ccccc2c1)C(=O)N[C@H](Cc1ccc(Cl)cc1)C(=O)N[C@H](Cc1cccnc1)C(=O)N[C@@H](CO)C(=O)N[C@@H](Cc1ccc(O)cc1)C(=O)N[C@H](CCCNC(N)=O)C(=O)N[C@@H](Cc1c[nH]c2ccccc12)C(=O)N[C@@H](Cc1ccc(O)cc1)C(=O)N1CCC[C@H]1C(=O)N[C@H](C)C(N)=O [Trptorelix-1, Ac-D2Nal-(4Cl)D-Phe-D-3Pal-Ser-Tyr-D-Cit-Trp-Tyr-Pro-DAlaNH2] (Ac-[d2Nal][dPhe(4-Cl)][d3Pal]SY[dCit]WYP[dA]-NH2)
fold more sensitive than Cetrorelix (bfGnRHR-3 [1]; [6]): about 1000 fold | IP production by antagonist alone (bfGnRHR-3 [1]; without GnRH-2): production of IP was not observed | effect on luciferase activity induced by GnRH-2 (Primate GnRH-2 receptor; GnRH-2 and antagonist treated at the same time): reduced in a concentration-dependent manner | fold more sensitive than Cetrorelix (bfGnRHR-2; [6]): 100 fold | IP production by antagonist alone (bfGnRHR-2; without GnRH-2): production of IP was not observed
